pIC50: −log10 of the molar value.
Molecular target: rat brain cortical membranes ([35S]-TBPS binding; GABAA receptor)
Test: Steroid inhibition of [35S]-TBPS binding (radioligand displacement)
Conditions: 3 nM [35S]-TBPS, in the presence of 5 μM GABA, 90 min at room temp
Text: TBPS binding assays using rat brain cortical membranes in the presence of […] GABA has been described (Gee et al, J. Pharmacol. Exp. Ther. 1987, 241, 346-353; Hawkinson et al, Mol. Pharmacol. 1994, 46, 977-985; Lewin, A. H et al., Mol. Pharmacol. 1989, 35, 189-194).
Briefly, cortices are rapidly removed following decapitation of carbon dioxide-anesthetized Sprague-Dawley rats (200-250 g). The cortices are homogenized in 10 volumes of ice-cold 0.32 M sucrose using a glass/teflon homogenizer and centrifuged at 1500×g for 10 min at 4° C. The resultant supernatants are centrifuged at 10,000×g for 20 min at 4° C.; to obtain the P2 pellets. The P2 pellets are resuspended in 200 mM NaCl/50 mM Na—K phosphate pH 7.4 buffer and centrifuged at 10,000×g for 10 min at 4° C. This washing procedure is repeated twice and the pellets are resuspended in 10 volumes of buffer. Aliquots (100 μL) of the membrane suspensions are incubated with 3 nM [^35S]-TBPS and 5 μL aliquots of test drug dissolved in dimethyl sulfoxide (DMSO) (final 0.5%) in the presence of 5 μM GABA. The incubation is brought to a final volume of 1.0 mL with buffer. Nonspecific binding is determined in the presence of 2 μM unlabeled TBPS and ranged from 15 to 25%. Following a 90 min incubation at room temp, the assays are terminated by filtration through glass fiber filters (Schleicher and Schuell No. 32) using a cell harvester (Brandel) and rinsed three times with ice-cold buffer. Filter bound radioactivity is measured by liquid scintillation spectrometry. Non-linear curve fitting of the overall data for each drug averaged for each concentration is done using Prism (GraphPad). […] The concentration of test compound producing 50% inhibition (IC50) of specific binding and the maximal extent of inhibition (Imax) are determined for the individual experiments with the same model used for the overall data and then the means±SEM.s of the individual experiments are calculated.
Various compounds are or can be screened to determine their potential as modulators of [^35S]-TBPS binding in vitro. These assays are or can be performed in accordance with the above discussed procedures.

| Structure (SMILES) | pIC50 |
| --- | --- |
| C[C@H](C(=O)[C@H]1CC[C@H]2[C@@H]3CC[C@@H]4C[C@](C)(O)CC[C@@H]4[C@H]3CC[C@]12C)n1nccn1 [Compound 1, (R)-1-((3R,5R,8R,9R,10S,13S,14S,17S)-3-hydroxy-3,13-dimethylhexadecahydro-1H-cyclopenta[a]phenanthren-17-yl)-2-(2H-1,2,3-triazol-2-yl)propan-1-one] | 6.30 to 6.60 |
| C[C@@H](C(=O)[C@H]1CC[C@H]2[C@@H]3CC[C@@H]4C[C@](C)(O)CC[C@@H]4[C@H]3CC[C@]12C)n1nccn1 [Compound 2, (S)-1-((3R,5R,8R,9R,10S,13S,14S,17S)-3-hydroxy-3,13-dimethylhexadecahydro-: 1H-cyclopenta[a]phenanthren-17-yl)-2-(2H-1,2,3-triazol-2-yl)propan-1-one] | 7.00 to 7.30 |
| C[C@@H](C(=O)[C@H]1CC[C@H]2[C@@H]3CC[C@@H]4C[C@](C)(O)CC[C@@H]4[C@H]3CC[C@]12C)n1cc(C#N)cn1 [Compound 3, 1-((S)-1-((3R,5R,8R,9R,10S,13S,14S,17S)-3-hydroxy-3,13-dimethylhexadecahydro-1H-cyclopenta[a]phenanthren-17-yl)-1-oxopropan-2-yl)-1H-pyrazole-4-carbonitrile] | > 7.30 |
| C[C@H](C(=O)[C@H]1CC[C@H]2[C@@H]3CC[C@@H]4C[C@](C)(O)CC[C@@H]4[C@H]3CC[C@]12C)n1cc(C#N)cn1 [Compound 4, 1-((R)-1-((3R,5R,8R,9R,10S,13S,14S,17S)-3-hydroxy-3,13-dimethylhexadecahydro-1H-cyclopenta[a]phenanthren-17-yl)-1-oxopropan-2-yl)-1H-pyrazole-4-carbonitrile] | 7.00 to 7.30 |
| CC(C(=O)[C@H]1CC[C@H]2[C@@H]3CC[C@@H]4C[C@](C)(O)CC[C@@H]4[C@H]3CC[C@]12C)N1CCOCC1 (stereo partly drawn) [Compound 5, 1-((3R,5R,8R,9R,10S,13S,14S,17S)-3-hydroxy-3,13-dimethylhexadecahydro-1H-cyclopenta[a]phenanthren-17-yl)-2-morpholinopropan-1-one] | 6.30 to 6.60 |
| C[C@@H](C(=O)[C@H]1CC[C@H]2[C@@H]3CC[C@@H]4C[C@](C)(O)CC[C@@H]4[C@H]3CC[C@]12C)n1nc2ccccc2n1 [Compound 6, (S)-2-(2H-benzo[d][1,2,3]triazol-2-yl)-1-((3R,5R,8R,9R,10S,13S,14S,17S)-3-hydroxy-3,1:3-dimethylhexadecahydro-1H-cyclopenta[a]phenanthren-17-yl)propan-1-one] | > 7.30 |
| C[C@H](C(=O)[C@H]1CC[C@H]2[C@@H]3CC[C@@H]4C[C@](C)(O)CC[C@@H]4[C@H]3CC[C@]12C)n1nc2ccccc2n1 [Compound 7, (R)-2-(2H-benzo[d][1,2,3]triazol-2-yl)-1-((3R,5R,8R,9R,10S,13S,14S,17S)-3-hydroxy-3,13-dimethylhexadecahydro-1H-cyclopenta[a]phenanthren-17-yl)propan-1-one] | 6.30 to 6.60 |

Reference: patent publication US12180248B2, “Compositions and methods for treating CNS disorders” (Sage Therapeutics, Inc., priority 2014, dated 2024)
